Reference: patent US20090181098A1, “Hmg-Co-a Reductase Inhibitor Enhancement of Bone and Cartilage” (OsteoScreen IP, LLC, priority 2006, published 2009)

What was measured:
[1] = Plasma lovastatin levels after a single oral or dermal dose, estimated by HMG-CoA reductase inhibition assay; assay type: in vivo, rat
Protocol: The area under the plasma concentration-time curve (AUC0-24 hr) of lovastatin equivalence was calculated using the trapezoidal rule for both oral and dermal application of lovastatin. For oral administration, a suspension of lovastatin was prepared in 0.5% methylcellulose and administered by gavage. For dermal administration, lovastatin was mixed initially with 100% DMSO and in subsequent experiments, with hydrophilic petrolatum and applied to the back of the animals after shaving (area of application=6.45 cm^2). In later experiments, the dermal formulation was modified and a aqueous alkanolic gel with a carbomer-based formulation containing water, ethanol, Carbomer 940, cholesterol, BHA and TEA was used.

femur fracture model = system: femur fracture model
Source text: In accordance with the study, the clinical focus involves creating uniform and reproducible fracture defects utilizing a pinned closed transverse rat femoral model chosen because it has been well defined and fully characterized by mechanical and histologic methods. Advantages of this model include reproducibility, defect uniformity, and a rapid 5 weeks to clinical union healing phase. The properties of the bioactive coating are investigated in preliminary studies in vitro and in vivo using the explanted calvarial culture and the local calvarial injection model including drug-release kinetics, degradation and stability. The aims of the study are: (1) to evaluate the effect of controlled-released locally administered lovastatin on callus formation, progression and fracture healing using X-ray analysis of fracture healing. At the end of the experiment, the fractured limb will be excised and X-rayed after removal of stabilizing pins. These X-rays will be assessed for evidence of healing of the fracture. They will be scored by 3 independent observers for healing of the fracture; (2) to evaluate the effect of controlled released lovastatin on biomechanical parameters by three-point bending and micro computer tomography (uCT); and (3) to evaluate by uCT bone microarchitecture at callus site and bone healing. […]

## CC[C@H](C)C(=O)O[C@H]1C[C@@H](C)C=C2C=C[C@H](C)[C@H](CC[C@@H]3C[C@@H](O)CC(=O)O3)[C@H]21 [lovastatin]
[1]; single dermal dose
  Plasma levels, aqueous alkanolic gel compared with hydrophilic petrolatum: higher plasma levels
[1]; single dermal dose in aqueous alkanolic gel
  Time to peak plasma levels: within the first hour
[1]; single dermal dose, both doses tested (6.25 and 25 mg/kg)
  AUC0-24 h, aqueous alkanolic gel relative to petrolatum formulation: more than double
[1]; single dose 10 or 50 mg/kg, dermal in 100% DMSO vs gavage in 0.5% methylcellulose, 1, 3, 6, 24 h
  Plasma concentrations, dermal compared with oral: greater, less variable and more prolonged
Femur fracture model; released from nanobeads at fracture site
  Lowest lovastatin amount tested giving a significant increase in radiographic score: 0.2 µg/day
Femur fracture model; single injection of nanobeads at fracture site, 2 weeks
  Lovastatin release giving maximum radiographic score: 1.5 µg/day
